Assay results from paper PMC12475274, “Harnessing indole scaffolds to identify small-molecule IRE1α inhibitors modulating XBP1 mRNA splicing” (Nature Communications, 2025).
Entries after “also recorded” stand apart in the source; their conditions may differ.

Columns and labels:
dephosphorylated IRE1α = molecular target: T1, dephosphorylated IRE1α (Homo sapiens, UniProt O75460); test: Microscale thermophoresis (MST), IRE1α; type: binding
T1 construct: Human IRE1α kinase and RNase domain (residues 547–977) was subcloned into pLIB plasmid; His tag (with TEV cleavage site) (N, cleaved yes); made in house; host or cells: Sf9 insect cells, baculovirus (Bac-to-Bac)
Procedure: Dephosphorylated IRE1α protein and phosphorylated IRE1α protein were labeled and purified using Protein Labeling Kit RED-NHS 2nd Generation (NanoTemper, MO-L011), following the manufacturer’s protocol. The labeling buffer contained 50 mM HEPES, pH 7.5, 200 mM NaCl, 2% glycerol, 0.5 mM TCEP, 0.05% tween20. MST experiments were performed using the Monolith Nt.115 instrument (NanoTemper), and binding experiments were conducted according to the instrument’s instructions. Compounds were serially diluted 2-fold and incubated with labeled IRE1α protein at a final concentration of 20 nM. The highest compound concentration measured was 250 μM with a final DMSO concentration of 2.5%. Measurements were carried out using the red detector with 60% excitation power. Data were analyzed using the manufacturer’s software, and results from three individual measurements were merged for analysis.

MAPK14 (p38 alpha) = MAPK14 (p38 alpha) (Homo sapiens, UniProt Q16539); test: Kinase profiling (SelectScreen), ZLYTE; type: biochemical; settings: IA107 at 5 μM; ATP 100 μM
Chain of MAPK14 (p38 alpha) (Q16539 whole entry): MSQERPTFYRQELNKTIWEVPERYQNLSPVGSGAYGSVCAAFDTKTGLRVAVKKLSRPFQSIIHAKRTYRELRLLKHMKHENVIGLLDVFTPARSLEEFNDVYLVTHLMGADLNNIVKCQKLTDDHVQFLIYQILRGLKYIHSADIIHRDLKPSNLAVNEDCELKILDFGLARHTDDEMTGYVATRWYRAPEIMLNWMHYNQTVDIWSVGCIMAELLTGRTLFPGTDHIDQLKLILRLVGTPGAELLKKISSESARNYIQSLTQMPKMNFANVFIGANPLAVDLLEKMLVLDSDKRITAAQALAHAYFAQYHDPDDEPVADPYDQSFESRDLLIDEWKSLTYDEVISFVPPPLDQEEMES
Procedure: (§1) Kinase profiling was conducted by the SelectScreen Kinase Profiling Services (Thermo Fisher), using Z′-LYTE, Adapta, or LanthaScreen Eu Kinase Binding Assay for different kinases. The kinome phylogenetic tree was generated using the KinMap web portal.

MAPK8 (JNK1) = MAPK8 (JNK1) (Homo sapiens, UniProt P45983); test: Kinase profiling (SelectScreen), ZLYTE; type: biochemical; settings: IA107 at 5 μM; ATP 100 μM
Procedure: as §1

ACVR1 (ALK2) = ACVR1 (ALK2) (Homo sapiens, UniProt Q04771); test: Kinase profiling (SelectScreen), LanthaScreen Binding; settings: IA107 at 5 μM
Procedure: as §1

BMPR1B (ALK6) = BMPR1B (ALK6) (Homo sapiens, UniProt O00238); test: as above; settings: IA107 at 5 μM
Chain of BMPR1B (ALK6) (O00238 14-502): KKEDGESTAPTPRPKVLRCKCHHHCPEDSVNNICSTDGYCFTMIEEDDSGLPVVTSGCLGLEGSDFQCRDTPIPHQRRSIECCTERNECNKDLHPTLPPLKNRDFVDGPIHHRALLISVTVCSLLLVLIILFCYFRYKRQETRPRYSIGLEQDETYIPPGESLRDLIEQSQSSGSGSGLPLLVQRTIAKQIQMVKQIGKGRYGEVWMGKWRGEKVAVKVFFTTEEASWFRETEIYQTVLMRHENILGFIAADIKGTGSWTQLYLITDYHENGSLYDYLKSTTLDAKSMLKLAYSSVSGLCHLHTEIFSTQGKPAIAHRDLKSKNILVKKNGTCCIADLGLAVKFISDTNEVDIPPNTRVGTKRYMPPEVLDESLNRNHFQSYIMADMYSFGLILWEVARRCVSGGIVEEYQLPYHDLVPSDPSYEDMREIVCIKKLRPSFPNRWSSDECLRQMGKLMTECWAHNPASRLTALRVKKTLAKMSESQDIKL
Procedure: as §1

BRSK2 = BRSK2 (Homo sapiens, UniProt Q8IWQ3); test: as above; settings: IA107 at 5 μM
Procedure: as §1

CAMKK2 (CaMKK beta) = CAMKK2 (CaMKK beta) (Homo sapiens, UniProt Q96RR4); test: as above; settings: IA107 at 5 μM
Procedure: as §1

CDC7/DBF4 = CDC7/DBF4 (Homo sapiens, UniProt O00311); test: as above; settings: IA107 at 5 μM
Procedure: as §1

CDK8/cyclin C = CDK8/cyclin C (Homo sapiens, UniProt P49336); test: as above; settings: IA107 at 5 μM
Procedure: as §1

DDR2 = DDR2 (Homo sapiens, UniProt Q16832); test: as above; settings: IA107 at 5 μM
Chain of DDR2 (Q16832 22-855): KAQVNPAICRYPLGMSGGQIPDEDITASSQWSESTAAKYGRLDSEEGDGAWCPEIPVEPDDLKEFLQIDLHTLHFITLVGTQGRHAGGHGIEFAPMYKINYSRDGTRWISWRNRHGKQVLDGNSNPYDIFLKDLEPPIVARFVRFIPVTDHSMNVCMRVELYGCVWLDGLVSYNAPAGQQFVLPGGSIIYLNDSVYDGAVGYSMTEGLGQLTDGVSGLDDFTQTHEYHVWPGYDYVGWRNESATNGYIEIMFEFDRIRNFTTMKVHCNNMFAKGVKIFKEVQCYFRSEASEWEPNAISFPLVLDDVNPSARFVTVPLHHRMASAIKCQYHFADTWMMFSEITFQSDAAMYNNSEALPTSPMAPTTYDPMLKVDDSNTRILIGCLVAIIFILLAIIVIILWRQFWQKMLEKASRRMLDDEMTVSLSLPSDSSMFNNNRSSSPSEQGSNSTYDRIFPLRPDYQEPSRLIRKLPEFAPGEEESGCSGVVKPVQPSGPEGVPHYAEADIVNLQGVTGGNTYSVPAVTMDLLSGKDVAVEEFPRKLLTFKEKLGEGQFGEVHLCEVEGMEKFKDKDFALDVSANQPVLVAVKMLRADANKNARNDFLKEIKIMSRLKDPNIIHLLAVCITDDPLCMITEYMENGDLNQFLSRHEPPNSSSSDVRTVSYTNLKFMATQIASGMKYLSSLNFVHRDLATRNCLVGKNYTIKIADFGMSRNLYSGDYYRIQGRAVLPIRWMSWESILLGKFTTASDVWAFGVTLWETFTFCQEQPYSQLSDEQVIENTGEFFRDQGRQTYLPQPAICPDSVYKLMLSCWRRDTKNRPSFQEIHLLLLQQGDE
Procedure: as §1

ICK = ICK (Homo sapiens, UniProt Q9UPZ9); test: as above; settings: IA107 at 5 μM
Chain of ICK (Q9UPZ9 whole entry): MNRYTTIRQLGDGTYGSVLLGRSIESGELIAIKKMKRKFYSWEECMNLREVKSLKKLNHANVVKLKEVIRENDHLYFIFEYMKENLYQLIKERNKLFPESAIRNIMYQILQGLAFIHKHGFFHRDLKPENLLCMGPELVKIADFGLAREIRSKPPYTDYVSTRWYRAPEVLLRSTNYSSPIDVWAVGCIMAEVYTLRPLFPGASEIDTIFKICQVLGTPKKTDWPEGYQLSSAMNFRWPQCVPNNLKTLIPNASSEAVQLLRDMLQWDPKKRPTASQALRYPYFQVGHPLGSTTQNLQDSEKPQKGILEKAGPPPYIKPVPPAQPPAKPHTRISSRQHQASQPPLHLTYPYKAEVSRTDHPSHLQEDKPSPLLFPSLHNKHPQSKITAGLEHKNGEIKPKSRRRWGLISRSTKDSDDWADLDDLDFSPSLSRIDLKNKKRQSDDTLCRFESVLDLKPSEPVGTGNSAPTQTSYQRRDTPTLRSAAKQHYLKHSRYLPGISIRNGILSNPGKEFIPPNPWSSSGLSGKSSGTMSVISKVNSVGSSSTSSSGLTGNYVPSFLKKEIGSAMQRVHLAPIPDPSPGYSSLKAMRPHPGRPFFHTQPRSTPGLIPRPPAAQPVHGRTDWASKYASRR
Procedure: as §1

LIMK1 = LIMK1 (Homo sapiens, UniProt P53667); test: as above; settings: IA107 at 5 μM
Chain of LIMK1 (P53667 whole entry): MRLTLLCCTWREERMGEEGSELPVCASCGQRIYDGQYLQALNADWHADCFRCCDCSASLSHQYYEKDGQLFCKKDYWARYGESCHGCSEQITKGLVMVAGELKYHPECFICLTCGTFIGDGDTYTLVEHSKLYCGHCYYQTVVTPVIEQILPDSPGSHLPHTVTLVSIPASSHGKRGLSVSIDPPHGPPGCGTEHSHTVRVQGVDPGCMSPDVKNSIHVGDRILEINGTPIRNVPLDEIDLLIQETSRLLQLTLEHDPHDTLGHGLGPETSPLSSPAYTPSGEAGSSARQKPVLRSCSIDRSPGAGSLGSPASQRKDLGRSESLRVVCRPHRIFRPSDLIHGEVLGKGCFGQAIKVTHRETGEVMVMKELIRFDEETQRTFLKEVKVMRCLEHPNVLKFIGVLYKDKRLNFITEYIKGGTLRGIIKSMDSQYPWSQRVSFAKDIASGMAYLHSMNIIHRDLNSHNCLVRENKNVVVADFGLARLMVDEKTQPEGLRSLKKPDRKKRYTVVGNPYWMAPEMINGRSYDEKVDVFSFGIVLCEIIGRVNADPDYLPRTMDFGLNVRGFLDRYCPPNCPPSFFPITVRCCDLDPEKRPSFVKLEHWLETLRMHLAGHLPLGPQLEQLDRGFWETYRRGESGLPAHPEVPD
Procedure: as §1

MAP3K11 (MLK3) = MAP3K11 (MLK3) (Homo sapiens, UniProt Q16584); test: as above; settings: IA107 at 5 μM
Procedure: as §1

MAP3K14 (NIK) = MAP3K14 (NIK) (Homo sapiens, UniProt Q99558); test: as above; settings: IA107 at 5 μM
Procedure: as §1

MAP4K1 (HPK1) = MAP4K1 (HPK1) (Homo sapiens, UniProt Q92918); test: as above; settings: IA107 at 5 μM
Procedure: as §1

MAPK15 (ERK7) = MAPK15 (ERK7) (Homo sapiens, UniProt Q8TD08); test: as above; settings: IA107 at 5 μM
Procedure: as §1

MYO3B (MYO3 beta) = MYO3B (MYO3 beta) (Homo sapiens, UniProt Q8WXR4); test: as above; settings: IA107 at 5 μM
Procedure: as §1

RIPK2 = RIPK2 (Homo sapiens, UniProt O43353); test: as above; settings: IA107 at 5 μM
Procedure: as §1

STK32B (YANK2) = STK32B (YANK2) (Homo sapiens, UniProt Q9NY57); test: as above; settings: IA107 at 5 μM
Procedure: as §1

STK33 = STK33 (Homo sapiens, UniProt Q9BYT3); test: as above; settings: IA107 at 5 μM
Procedure: as §1

STK38 (NDR) = STK38 (NDR) (Homo sapiens, UniProt Q15208); test: as above; settings: IA107 at 5 μM
Chain of STK38 (NDR) (Q15208 whole entry): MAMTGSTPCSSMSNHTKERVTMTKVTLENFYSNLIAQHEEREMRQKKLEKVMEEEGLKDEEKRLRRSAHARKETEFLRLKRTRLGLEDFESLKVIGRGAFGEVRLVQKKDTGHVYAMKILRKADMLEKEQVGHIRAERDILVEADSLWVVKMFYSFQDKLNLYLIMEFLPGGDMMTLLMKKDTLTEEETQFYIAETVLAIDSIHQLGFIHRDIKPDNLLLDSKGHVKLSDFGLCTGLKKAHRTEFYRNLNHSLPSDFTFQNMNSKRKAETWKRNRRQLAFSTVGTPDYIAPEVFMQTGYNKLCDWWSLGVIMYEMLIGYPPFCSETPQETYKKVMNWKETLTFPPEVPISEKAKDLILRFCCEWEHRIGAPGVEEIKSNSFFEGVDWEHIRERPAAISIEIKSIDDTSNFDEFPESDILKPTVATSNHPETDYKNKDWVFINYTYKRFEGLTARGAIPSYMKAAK
Procedure: as §1

TGFBR1 (ALK5) = TGFBR1 (ALK5) (Homo sapiens, UniProt P36897); test: as above; settings: IA107 at 5 μM
Procedure: as §1

TLK1 = TLK1 (Homo sapiens, UniProt Q9UKI8); test: as above; settings: IA107 at 5 μM
Chain of TLK1 (Q9UKI8 whole entry): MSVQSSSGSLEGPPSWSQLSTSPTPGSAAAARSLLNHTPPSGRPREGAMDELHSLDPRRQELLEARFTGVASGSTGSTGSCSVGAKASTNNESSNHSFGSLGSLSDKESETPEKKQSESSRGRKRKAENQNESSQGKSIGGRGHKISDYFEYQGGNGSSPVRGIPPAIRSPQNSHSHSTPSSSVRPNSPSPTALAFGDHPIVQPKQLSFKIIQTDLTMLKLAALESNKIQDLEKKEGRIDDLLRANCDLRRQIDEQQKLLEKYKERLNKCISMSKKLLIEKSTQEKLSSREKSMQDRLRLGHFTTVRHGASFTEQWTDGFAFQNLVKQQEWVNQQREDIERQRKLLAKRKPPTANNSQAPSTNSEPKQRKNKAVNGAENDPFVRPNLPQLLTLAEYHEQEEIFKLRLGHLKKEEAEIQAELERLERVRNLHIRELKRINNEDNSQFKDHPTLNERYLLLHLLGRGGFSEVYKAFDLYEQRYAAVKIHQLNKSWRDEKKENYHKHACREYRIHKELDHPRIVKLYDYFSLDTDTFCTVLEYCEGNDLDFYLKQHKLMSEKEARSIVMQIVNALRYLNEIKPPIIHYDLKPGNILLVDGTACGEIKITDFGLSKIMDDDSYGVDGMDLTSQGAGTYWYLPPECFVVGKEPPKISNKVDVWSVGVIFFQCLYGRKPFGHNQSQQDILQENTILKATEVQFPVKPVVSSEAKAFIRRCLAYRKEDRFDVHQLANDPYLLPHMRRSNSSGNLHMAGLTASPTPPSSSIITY
Procedure: as §1

TNIK = TNIK (Homo sapiens, UniProt Q9UKE5); test: as above; settings: IA107 at 5 μM
Procedure: as §1

TTK = TTK (Homo sapiens, UniProt P33981); test: as above; settings: IA107 at 5 μM
Chain of TTK (P33981 whole entry): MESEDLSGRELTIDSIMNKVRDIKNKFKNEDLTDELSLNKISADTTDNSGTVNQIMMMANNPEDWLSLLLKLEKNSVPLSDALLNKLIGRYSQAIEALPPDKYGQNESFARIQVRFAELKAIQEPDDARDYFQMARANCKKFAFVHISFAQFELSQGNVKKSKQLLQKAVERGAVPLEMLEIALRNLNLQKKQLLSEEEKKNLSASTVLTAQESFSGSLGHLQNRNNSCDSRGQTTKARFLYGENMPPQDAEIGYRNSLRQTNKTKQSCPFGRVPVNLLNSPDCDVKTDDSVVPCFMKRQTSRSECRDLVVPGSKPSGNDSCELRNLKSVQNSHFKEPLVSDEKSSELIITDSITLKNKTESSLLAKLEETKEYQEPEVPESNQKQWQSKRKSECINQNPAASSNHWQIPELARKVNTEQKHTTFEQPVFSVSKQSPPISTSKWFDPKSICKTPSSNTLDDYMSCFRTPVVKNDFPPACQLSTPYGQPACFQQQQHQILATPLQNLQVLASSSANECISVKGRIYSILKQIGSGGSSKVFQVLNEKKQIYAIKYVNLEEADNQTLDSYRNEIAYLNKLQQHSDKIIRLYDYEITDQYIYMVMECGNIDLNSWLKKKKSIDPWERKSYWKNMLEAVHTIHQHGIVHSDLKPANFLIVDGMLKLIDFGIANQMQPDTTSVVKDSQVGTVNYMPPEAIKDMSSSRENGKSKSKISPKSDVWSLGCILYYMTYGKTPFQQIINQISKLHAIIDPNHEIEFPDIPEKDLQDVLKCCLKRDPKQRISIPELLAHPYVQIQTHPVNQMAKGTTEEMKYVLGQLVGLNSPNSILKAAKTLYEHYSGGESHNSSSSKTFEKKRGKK
Procedure: as §1

ULK2 = ULK2 (Homo sapiens, UniProt Q8IYT8); test: as above; settings: IA107 at 5 μM
Procedure: as §1

[1] = tested on: IRE1α transcription level in A549 cells; test: RT-qPCR of IRE1α transcription level, A549; type: cell-based, human; settings: A549 cells
Procedure: A549 cells, HCT 116 cells, and HT-29 cells were collected and seeded in 6-well plates at a density of 5 × 10^5 cells per well and cultured overnight to attach, then treated with compound or DMSO for 2 h, then 0.5 μg/mL final concentration of tunicamycin (Tm, MP Biomedi, 0215002805) were added to induce the ER stress for 2 h. After treatment, total RNA was purified using an RNeasy mini kit (Qiagen, 74106). 500 ng of total RNA was used for reverse transcription using the High-Capacity cDNA Reverse Transcription Kits (Thermo Fisher, 4368814). cDNA was diluted 1: 5 using RNase-free water, and 1 μL CDNA was used for each qPCR reaction. The qPCR was performed using PowerUp™ SYBR™ Green Master Mix (Thermo Fisher, A25742) with 10 µL reaction volume using Bio-Rad CFX96 Real-Time PCR Detection System following the standard cycling mode (primer Tm ≥ 60 °C) on the manufacturer’s protocol. Data was analyzed using the 2^- ΔΔCt method. The primers used are listed in Supplementary Table S3. The inhibition % was calculated by using the equation: inhibition% = 100× (normalized Tm control - normalized of the sample)/(normalized Tm control - normalized DMSO control). Tm control: Cells treated with tunicamycin; DMSO control: Cells treated with DMSO only.

Cc1c(CCC(=O)O)c2cc(Br)ccc2n1C(=O)c1ccccc1 [IA107]
Kd (dephosphorylated IRE1α): 1360 nM | inhibition at 5 µM (MAPK14 (p38 alpha)): 6% | inhibition at 5 µM (MAPK8 (JNK1)): -8% | inhibition at 5 µM (ACVR1 (ALK2)): 2% | inhibition at 5 µM (BMPR1B (ALK6)): 12% | inhibition at 5 µM (BRSK2): 1% | inhibition at 5 µM (CAMKK2 (CaMKK beta)): 4% | inhibition at 5 µM (CDC7/DBF4): 8% | inhibition at 5 µM (CDK8/cyclin C): 35% | inhibition at 5 µM (DDR2): -1% | inhibition at 5 µM (ICK): -2% | inhibition at 5 µM (LIMK1): -16% | inhibition at 5 µM (MAP3K11 (MLK3)): -3% | inhibition at 5 µM (MAP3K14 (NIK)): 0% | inhibition at 5 µM (MAP4K1 (HPK1)): -2% | inhibition at 5 µM (MAPK15 (ERK7)): 17% | inhibition at 5 µM (MYO3B (MYO3 beta)): -2% | inhibition at 5 µM (RIPK2): 0% | inhibition at 5 µM (STK32B (YANK2)): 2% | inhibition at 5 µM (STK33): -4% | inhibition at 5 µM (STK38 (NDR)): 6% | inhibition at 5 µM (TGFBR1 (ALK5)): 54% | inhibition at 5 µM (TLK1): -12% | inhibition at 5 µM (TNIK): 8% | inhibition at 5 µM (TTK): 6% | inhibition at 5 µM (ULK2): -3%

CCOC(=O)CCc1c(C)n(C(=O)c2ccccc2)c2ccc(Br)cc12 [IAPD1]
effect on IRE1α transcription level [1]: minimal impacts; also recorded: not affected
